Experimental findings from BindingDB's records for doi:10.3109/14756366.2011.596836 (Artvin Coruh University, 2012) are described below.

Each structure is given as a SMILES string.

Holding throughout (experiment): CA Activity Assay
Common to all, as to conditions: pH 7.4

One experiment deals with Carbonic anhydrase 1 (Homo sapiens, UniProt P00915). On the procedure:
(§1) The enzymatic reaction, in a total volume of 3.0 mL, contained 1.4-mL 0.05-M Tris SO4 buffer (pH 7.4), 1-mL 3-mM 4-NPA, 0.5-mL H2O and 0.1-mL enzyme solution. A reference measurement was obtained by preparing the same cuvette without enzyme solution. The inhibitory effects of the phenolic compounds were examined. All compounds were tested in triplicate at each concentration used. Different concentrations of the compounds were used.

The next experiment deals with Carbonic anhydrase 6 (Homo sapiens, UniProt P23280). As for the experimental part:
as §1

The next experiment addresses Carbonic anhydrase 2 (Homo sapiens, UniProt P00918). As for the experimental part:
as §1

Chain of Carbonic anhydrase 1 (P00915 whole entry): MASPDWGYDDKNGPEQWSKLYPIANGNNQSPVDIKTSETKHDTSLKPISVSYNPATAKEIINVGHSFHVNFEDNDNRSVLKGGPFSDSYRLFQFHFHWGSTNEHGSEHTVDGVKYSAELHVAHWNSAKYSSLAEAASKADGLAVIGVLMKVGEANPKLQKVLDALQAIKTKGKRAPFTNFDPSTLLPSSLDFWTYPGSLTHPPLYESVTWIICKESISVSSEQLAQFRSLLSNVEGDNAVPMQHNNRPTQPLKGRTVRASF
Chain of Carbonic anhydrase 6 (P23280 whole entry): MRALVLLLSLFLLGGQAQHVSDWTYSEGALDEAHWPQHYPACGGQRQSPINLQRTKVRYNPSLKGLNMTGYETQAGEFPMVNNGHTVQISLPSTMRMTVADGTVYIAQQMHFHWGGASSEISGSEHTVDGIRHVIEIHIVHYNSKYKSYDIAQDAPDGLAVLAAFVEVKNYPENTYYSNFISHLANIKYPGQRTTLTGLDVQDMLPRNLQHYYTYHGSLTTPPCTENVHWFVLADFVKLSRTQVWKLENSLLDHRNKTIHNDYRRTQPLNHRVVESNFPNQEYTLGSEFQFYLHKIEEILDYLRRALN

Turning to `O=C(c1ccc(O)c(O)c1)c1ccc(O)c(O)c1` [Bis(3,4-dihydroxyphenyl)methanone], the values for the inhibitory constant (Ki) at Carbonic anhydrase 1, at Carbonic anhydrase 6 and on Carbonic anhydrase 2 were 18 µM, 11.4 µM and 1.44 µM, respectively.
The matching figures for `COc1ccc(C(=O)c2ccc(OC)c(OC)c2)cc1OC` [hCA inhibitor, 2]: 403 µM, 293 µM and 47.8 µM.
